Test results reported in PMC5908784, “Extracellular loops 2 and 3 of the calcitonin receptor selectively modify agonist binding and efficacy” (Biochemical Pharmacology, 2018).
Substitutions are numbered along the chain they refer to. Where a SMILES comes first, the peptide text is derived from it. Bridges are numbered along the chain shown (N, C = ends).

Key:
Type in all cases: cell-based
[1] = biological target: T1, hCTR T295A (Homo sapiens, UniProt P30988, T295A); test: IP1 accumulation; settings: mean ± S.E.M.; for Emax: IP1 maximal response, SEM
T1 construct: c-Myc (N); expressed in transfected cells
T1 sequence (P30988 25-474 T295A): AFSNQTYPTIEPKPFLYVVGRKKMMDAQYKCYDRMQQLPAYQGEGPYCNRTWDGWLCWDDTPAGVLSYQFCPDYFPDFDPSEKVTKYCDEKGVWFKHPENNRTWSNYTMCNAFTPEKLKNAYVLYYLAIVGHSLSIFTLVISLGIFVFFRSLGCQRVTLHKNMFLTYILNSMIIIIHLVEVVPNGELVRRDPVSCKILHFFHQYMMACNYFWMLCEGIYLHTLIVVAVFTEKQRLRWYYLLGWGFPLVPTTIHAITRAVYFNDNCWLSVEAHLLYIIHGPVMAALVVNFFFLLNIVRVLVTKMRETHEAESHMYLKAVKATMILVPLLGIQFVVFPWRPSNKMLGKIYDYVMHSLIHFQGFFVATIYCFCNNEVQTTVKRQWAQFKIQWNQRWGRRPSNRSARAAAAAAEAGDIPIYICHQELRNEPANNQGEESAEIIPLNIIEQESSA
Description: (§1) Cells (2.5 × 10^4 cells/well) were plated into 96 well trays and cultured overnight. Cells were stimulated with increasing concentration of ligands for 60 min in the presence of LiCl. Samples were lysed and endogenous IP1 was measured using an IP-One HTRF® assay kit (CisBio) as specified by the manufacturer. Data were normalized to the maximal response elicited by 100 μM of ATP.
(§2) Data were corrected for radioligand occupancy using the Cheng-Prusoff equation in Prism; as such data are reported as pKi. Emax and EC50 were estimated from concentration-response curves using with a 3-parameter logistic equation in Prism (v7). These values are a composite of functional affinity, efficacy and stimulus response coupling. […] Significance was accepted at P < 0.05.

[2] = biological target: T2, hCTR K366A (Homo sapiens, UniProt P30988, K366A); test: IP1 accumulation; settings: mean ± S.E.M.; for Emax: IP1 maximal response, SEM
T2 construct: c-Myc (N); expressed in transfected cells
T2 sequence (P30988 25-474 K366A): T1 sequence (P30988 25-474 T295A) with A271T, K342A
Description: as §1, §2

[3] = biological target: T3, hCTR L297A (Homo sapiens, UniProt P30988, L297A); test: IP1 accumulation; settings: mean ± S.E.M.; for Emax: IP1 maximal response, SEM
T3 construct: c-Myc (N); expressed in transfected cells
T3 sequence (P30988 25-474 L297A): T1 sequence (P30988 25-474 T295A) with A271T, L273A
Description: as §1, §2

[4] = biological target: T4, hCTR L298A (Homo sapiens, UniProt P30988, L298A); test: ERK1/2 phosphorylation; settings: CV1-FlpIn cells, mean ± S.E.M.; for Emax: pERK maximal response; for EC50: pERK, three-parameter logistic fit
T4 construct: c-Myc (N); expressed in transfected cells
T4 sequence (P30988 25-474 L298A): T1 sequence (P30988 25-474 T295A) with A271T, L274A
Outline: (§3)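 Cells were seeded at 2.5 × 10^4 cells/well and cultured overnight before stimulation. ERK1/2 phosphorylation was normalized to the maximal response to 10% FBS measured at 6 min. EC50 and Emax came from a 3-parameter logistic fit of concentration-response curves.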

[5] = biological target: T5, hCTR D373A (Homo sapiens, UniProt P30988, D373A); test: ERK1/2 phosphorylation; settings: CV1-FlpIn cells, mean ± S.E.M.; for Emax: pERK maximal response
T5 construct: c-Myc (N); expressed in transfected cells
T5 sequence (P30988 25-474 D373A): T1 sequence (P30988 25-474 T295A) with A271T, D349A
Outline: as §3

[6] = IP1, CV1-FlpIn cells, 60 min, LiCl

Work on `CC(C)C[C@H](NC(=O)[C@H](CCCCN)NC(=O)CNC(=O)[C@H](CC(C)C)NC(=O)[C@@H](NC(=O)[C@@H]1CSSC[C@H](N)C(=O)N[C@@H](CO)C(=O)N[C@@H](CC(N)=O)C(=O)N[C@@H](CC(C)C)C(=O)N[C@@H](CO)C(=O)N[C@@H]([C@@H](C)O)C(=O)N1)C(C)C)C(=O)N[C@@H](CO)C(=O)N[C@@H](CCC(N)=O)C(=O)N[C@@H](CCC(=O)O)C(=O)N[C@@H](CC(C)C)C(=O)N[C@@H](Cc1c[nH]cn1)C(=O)N[C@@H](CCCCN)C(=O)N[C@@H](CC(C)C)C(=O)N[C@@H](CCC(N)=O)C(=O)N[C@H](C(=O)N[C@@H](Cc1ccc(O)cc1)C(=O)N1CCC[C@H]1C(=O)N[C@@H](CCCNC(=N)N)C(=O)N[C@H](C(=O)N[C@@H](CC(N)=O)C(=O)N[C@H](C(=O)NCC(=O)N[C@@H](CO)C(=O)NCC(=O)N[C@H](C(=O)N1CCC[C@H]1C(N)=O)[C@@H](C)O)[C@@H](C)O)[C@@H](C)O)[C@@H](C)O` [sCT] yielded an Emax [1] of 53 ± 7%, an Emax [2] of 93 ± 5% and an Emax [3] of 69 ± 7%. For the same compound, the Emax [4] was 85 ± 6% and the Emax [5] was 103 ± 11%.

Compound `CC(C)C[C@H](NC(=O)[C@H](CC(N)=O)NC(=O)[C@H](CC(N)=O)NC(=O)[C@H](CO)NC(=O)[C@H](CO)NC(=O)[C@H](CCCNC(=N)N)NC(=O)[C@@H](NC(=O)[C@H](CC(C)C)NC(=O)[C@H](Cc1ccccc1)NC(=O)[C@H](CC(N)=O)NC(=O)[C@H](C)NC(=O)[C@H](CC(C)C)NC(=O)[C@H](CCCNC(=N)N)NC(=O)[C@H](CCC(N)=O)NC(=O)[C@@H](NC(=O)[C@H](C)NC(=O)[C@@H]1CSSC[C@H](NC(=O)[C@@H](N)CCCCN)C(=O)N[C@@H](CC(N)=O)C(=O)N[C@@H]([C@@H](C)O)C(=O)N[C@@H](C)C(=O)N[C@@H]([C@@H](C)O)C(=O)N1)[C@@H](C)O)C(C)C)C(=O)NCC(=O)N1CCC[C@H]1C(=O)N[C@H](C(=O)N[C@@H](CC(C)C)C(=O)N1CCC[C@H]1C(=O)N1CCC[C@H]1C(=O)N[C@H](C(=O)N[C@@H](CC(N)=O)C(=O)N[C@H](C(=O)NCC(=O)N[C@@H](CO)C(=O)N[C@@H](CC(N)=O)C(=O)N[C@H](C(=O)N[C@@H](Cc1ccc(O)cc1)C(N)=O)[C@@H](C)O)C(C)C)[C@@H](C)O)C(C)C` [rAmy] has an Emax [4] of 82 ± 7%.

Compound `CC[C@H](C)[C@H](NC(=O)[C@H](C)NC(=O)[C@@H](NC(=O)[C@H](CCC(N)=O)NC(=O)[C@@H]1CCCN1C(=O)[C@H](Cc1ccccc1)NC(=O)[C@@H](NC(=O)[C@H](Cc1c[nH]cn1)NC(=O)[C@H](Cc1ccccc1)NC(=O)[C@H](CCCCN)NC(=O)[C@H](CC(N)=O)NC(=O)[C@H](Cc1ccccc1)NC(=O)[C@H](CC(=O)O)NC(=O)[C@H](CCC(N)=O)NC(=O)[C@@H](NC(=O)[C@H](Cc1ccc(O)cc1)NC(=O)[C@@H](NC(=O)CNC(=O)[C@H](CC(C)C)NC(=O)[C@H](CCSC)NC(=O)[C@@H]1CSSC[C@H](N)C(=O)NCC(=O)N[C@@H](CC(N)=O)C(=O)N[C@@H](CC(C)C)C(=O)N[C@@H](CO)C(=O)N[C@@H]([C@@H](C)O)C(=O)N1)[C@@H](C)O)[C@@H](C)O)[C@@H](C)O)[C@@H](C)O)C(=O)NCC(=O)N[C@H](C(=O)NCC(=O)N[C@@H](C)C(=O)N1CCC[C@H]1C(N)=O)C(C)C` [hCT] has an Emax [1] of 43 ± 4%, an Emax [2] of 121 ± 6% and an Emax [3] of 52 ± 5%. For the same compound, the Emax [4] was 84 ± 10% and the Emax [5] was 71 ± 7%.

Compound `CC(C)C[C@H](NC(=O)CNC(=O)[C@H](C)NC(=O)[C@H](CC(C)C)NC(=O)[C@H](CCCNC(=N)N)NC(=O)[C@H](Cc1cnc[nH]1)NC(=O)[C@@H](NC(=O)[C@@H](NC(=O)[C@@H]1CSSC[C@H](NC(=O)[C@H](C)N)C(=O)N[C@@H](CC(=O)O)C(=O)N[C@@H]([C@@H](C)O)C(=O)N[C@@H](C)C(=O)N[C@@H]([C@@H](C)O)C(=O)N1)C(C)C)[C@@H](C)O)C(=O)N[C@@H](CC(C)C)C(=O)N[C@@H](CO)C(=O)N[C@@H](CCCNC(=N)N)C(=O)N[C@@H](CO)C(=O)NCC(=O)NCC(=O)N[C@H](C(=O)N[C@H](C(=O)N[C@@H](CCCCN)C(=O)N[C@@H](CC(N)=O)C(=O)N[C@@H](CC(N)=O)C(=O)N[C@@H](Cc1ccccc1)C(=O)N[C@H](C(=O)N1CCC[C@H]1C(=O)N[C@H](C(=O)N[C@@H](CC(N)=O)C(=O)N[C@H](C(=O)NCC(=O)N[C@@H](CO)C(=O)N[C@@H](CCCCN)C(=O)N[C@@H](C)C(=O)N[C@@H](Cc1ccccc1)C(N)=O)C(C)C)[C@@H](C)O)C(C)C)C(C)C)C(C)C` [hαCGRP] has an Emax [4] of 58 ± 8% and an EC50 [4] of 75.9 nM.

`CSCC[C@H](NC(=O)CNC(=O)[C@H](CO)NC(=O)[C@H](Cc1ccccc1)NC(=O)[C@H](CCCNC(=N)N)NC(=O)[C@H](Cc1c[nH]cn1)NC(=O)[C@H](Cc1ccccc1)NC(=O)[C@H](CC(N)=O)NC(=O)[C@H](CC(N)=O)NC(=O)[C@H](CC(C)C)NC(=O)[C@H](CC(N)=O)NC(=O)[C@H](CCCNC(=N)N)NC(=O)[C@H](Cc1c[nH]c2ccccc12)NC(=O)[C@H](Cc1ccc(O)cc1)NC(=O)[C@H](C)NC(=O)[C@H](CO)NC(=O)[C@H](CC(C)C)NC(=O)[C@@H](NC(=O)[C@@H]1CSSC[C@H](N)C(=O)N[C@@H](CO)C(=O)N[C@@H](CC(N)=O)C(=O)N[C@@H](CC(C)C)C(=O)N[C@@H](CO)C(=O)N[C@@H]([C@@H](C)O)C(=O)N1)C(C)C)C(=O)NCC(=O)N[C@@H](Cc1ccccc1)C(=O)NCC(=O)N1CCC[C@H]1C(=O)N[C@@H](CCC(=O)O)C(=O)N[C@H](C(=O)N1CCC[C@H]1C(N)=O)[C@@H](C)O` [pCT] (H-CSNLSTCVLSAYWRNLNNFHRFSGMGFGPETP-NH2; disulfide 1-7) showed an EC50 [1, 6] of 4.57 nM, an Emax [1] of 56 ± 7% and an EC50 [2, 6] of 1.48 nM. It also gave an Emax [2] of 91 ± 6%, an EC50 [3, 6] of 2 nM and an Emax [3] of 68 ± 5%. The Emax [4] was 73 ± 6%, the EC50 [4] was 1.1 nM and the Emax [5] was 32 ± 4%. For the same compound, the EC50 ([5]; pERK, three-parameter logistic fit) was 4.9 nM.
